We go through one compound from patent US11248229B2, “Inhibition of KMT2D for the treatment of cancer” (MEMORIAL SLOAN-KETTERING CANCER CENTER, priority 2016, dated 2022).

For assay [1], the system named is enhancers or promoters of canonical ER target genes in T47D and MCF7 cells. In words: ChIP-qPCR of ER, FOXA1, PBX1 and H3K4me1/2 occupancy at ER target genes. It is filed as cell-based, human. Conditions: DMSO or BYL719 for 24 h. The procedure:
(§1) Cells were crosslinked with 1% paraformaldehyde added directly to the culture medium to a final concentration of 1% and incubated at room temperature for 15 minutes. The crosslinked cells were quenched with ice-cold glycine for 5 minutes, washed with PBS and collected. The cells were then lysed with SDS lysis buffer (10 ml of 1% SDS, 10 mM EDTA, 50 mM Tris-HCl, pH 8.1) containing protease and phosphatase inhibitors for 15 minutes prior to sonication. Cells were sonicated in 10-s pulses for a total of 10 min. The sheared chromatin was diluted with ChIP Dilution buffer (0.01% SDS, 1.1% Triton X-100, 1.2 mM EDTA, 16.7 mM Tris-HCl, pH 8.1, 167 mM NaCl) and incubated overnight with Protein G Dynabeads (Thermo Fisher Scientific), which were pre-incubated with specific antibodies. ChIP antibodies to the following proteins were used: FOXA1 (ab5089) Abcam, PBX1 (H00005087-MO1) from Abnova, ER alpha (sc-543) from Santa Cruz and rabbit KMT2D homemade antibody which was generated by Eurogentec (third bleed) and affinity purified against GRARLKSTASSIC peptide (SEQ ID NO: 36). […]
(Quantitative PCR measures a nucleic acid by following its amplification.)

Another assay deals with KMT2D. In words: ChIP-qPCR time course for KMT2D, H3K4me1 and H3K4me2 upon BYL719. Conditions: BYL719 (1 μM) for 2, 4, 8, 12 and 24 h. It is filed as cell-based, human. The procedure:
as §1

For another assay, the system named is T47D and MCF7 cells. Nature of the assay: MTT cell viability assay. It is filed as cell-based, human. Conditions: BYL719 for 5 days. The text has this:
When indicated, MCF7 or T47D cells were transduced with lentiviruses expressing empty vector (pLKO. 1) or an shRNA against KMT2D (pLKO. 1) (disclosed in Table 1) or shRNA against FOXA1, shFOXA1 #1 TRCN0000014882; shFOXA1 #2: TRCN0000014880; or shRNA against PBX1, shPBX1 #1: TRCN0000020390; shPBX1 #2: TRCN0000020391). When indicated, MCF7 cells were transduced with pTRIPZ vectors (TRE-RFP-miR30/shRNA-UBC-IRES-PURO) targeting PBX1 or FOXA1 knockdown upon doxycycline administration. When indicated, MCF7 cells were transduced with LT3REPIR (pRRL) vector (T3G-dsRED-mirE/shRNA-PGK-PURO-IRES-rtTA3) targeting KMT2D knockdown upon doxycycline administration. For lentiviral production, 293T cells were transfected with pCMV-VSVG, pCMV-dR8.2 and the plasmid of interest using lipofectamine 3000 according to the manufacture's protocol.
BYL719 was obtained from the Stand Up to Cancer (SU2C) pharmacy. BYL719 was dissolved in DMSO for in vitro experiments. The MTT assay was used to measure cell viability. Briefly, 5000 cells were seeded in 96 well plates, treated with BYL719 for 5 days and assayed using 0.25% MTT (Sigma) and 50 mM sodium succinate (Sigma) for 3 hours. After the formazan crystals were dissolved with DMSO, the absorbance was measured at 570 nm of wavelength. Doxycycline was purchased from Sigma.
Background: Tetrazolium assays rely on reduction of a dye to a coloured formazan, in cell work by metabolically active cells.

The test system of assay [2] is breast tumor samples from patients. Nature of the assay: ATAC-seq of paired breast tumor biopsies from patients treated with BYL719. It is filed as in vivo, human. Particulars: paired tumor biopsies prior to therapy and on-therapy. An excerpt: Starting from fastq files containing ATAC-seq paired-end reads, sequencing adaptors were removed using Trimmomatic^34. Trimmed reads were mapped to the hg19 human genome using Bowtie2^35 allowing at most 1 seed mismatch and keeping only uniquely aligned reads. Duplicates were removed using Picard (http://picard.sourceforge.net). For peak-calling the read start sites were adjusted (reads aligning to the +/−strand were offset by +4 bp/−5 bp, respectively) to represent the center of the transposon binding-event, as described in Buenrostro et al.^21 For each samples, ATAC-seq was run on two biological replicates. Peak calling was performed on each condition individually by pooling reads from biological replicates and using MACS2^36 with a permissive P-value threshold (−p 1e−2). To find a set of peaks that are reproducible across the two biological replicates of a given cell condition, we calculated the per-replicate P-value of each peak using only the read count at the peak from the individual replicate and estimated the irreproducible discovery rate (IDR)^37 from the two sets of P-values that the replicates produced. […] Differentially accessible peaks from this atlas were identified with edgeR^38 by counting all read ends overlapping peaks in each condition. edgeR was run with default settings, a fold-change threshold of 2 and FDR <0.01. […]

In another assay the test system is T47D cells. Nature of the assay: ER and FOXA1 ChIP-seq upon BYL719 treatment. It is filed as cell-based, human. The procedure: Cells were crosslinked with 1% paraformaldehyde added directly to the culture medium to a final concentration of 1% and incubated at room temperature for 15 minutes. The crosslinked cells were quenched with ice-cold glycine for 5 minutes, washed with PBS and collected. The cells were then lysed with SDS lysis buffer (10 ml of 1% SDS, 10 mM EDTA, 50 mM Tris-HCl, pH 8.1) containing protease and phosphatase inhibitors for 15 minutes prior to sonication. Cells were sonicated in 10-s pulses for a total of 10 min. […]
Paired ends 36 bp sequencing was performed at the Genomics Core of Memorial Sloan Kettering Cancer Center using HiSeq (Illumina). Reads were first processed with Trimmomatic to remove the adaptor sequences and bases with quality scores below 20 and reads with less than 30 remaining bases were discarded^34. Trimmed reads were then aligned to hg19 human genome with the bowtie aligner^35. […] To find a set of peaks that are reproducible across the two biological replicates of a given cell condition, the per-replicate P-value of each peak was calculated using only the read count at the peak from the individual replicate and estimated the irreproducible discovery rate (IDR)^37 from the two sets of P-values that the replicates produced. […]
Differentially accessible peaks from combined atlas were identified with […] by counting all read ends overlapping peaks in each condition. […]

The subject of another assay is MCF7 xenografts. Nature of the assay: MCF7 inducible shRNA in vivo xenograft. Details: species or system athymic Foxn1nu mice. The procedure: Animals were maintained based on the institutional guidelines of Memorial Sloan Kettering Cancer Center (Protocol number 12-10-019). 6×10^6 MCF7 cells in 1:1 DF12 media/Matrigel (Corning) were injected subcutaneously into four to six week old female athymic Foxn1^nu mice. Mice were randomized when tumors reached ˜[…] of volume. 5 mice, 10 tumors were then treated with BYL719 (25 mg×kg^−1 in 0.5%) in carboxymethylcellulose (Sigma) daily for the indicated times. Tumors were collected at the end of the experiments, two to four hours after the last treatment.
Two way t-tests were performed using GraphPad Prism (GraphPad Software), P-values are indicated in the respective graphs. All cellular experiments were repeated at least three times. The in vivo experiments contained 10 tumors for each treatment arm and the sample size was chosen to reflect a difference in means of 20% with a power of 90%. Before the commencement of the in vivo experiments, animals were measured and randomized in groups with similar average tumor volume. Bioinformatics statistics are indicated in the respective method descriptions.

The test system of assay [3] is ER-dependent genes in T47D and MCF7 cells. In words: RT-qPCR of ER-dependent genes in hormone depleted cells. It is filed as cell-based, human. Conditions: cells treated with BYL719 (1 μM) for 24 h. The text has this: All cell lines were obtained from ATCC and used at low passages. T47D cells were maintained in RPMI 1640 with 10% FBS, 1% L-glutamine and 1% penicillin-streptomycin. MCF7 cells were maintained in DF-12 DMEM Dulbecco medium with 10% FBS, 1% L-glutamine and 1% penicillin-streptomycin. HEK 293T cells were maintained in DMEM Dulbecco medium supplemented with 10% FBS, 1% L-glutamine and 1% penicillin-streptomycin. For RNA analysis, MCF7 cells or T47D cells underwent hormonal starvation. MCF7 and T47D were cultured for 3 days in phenol-red-free DF12 DMEM and phenol-red-free RPMI respectively, media was supplemented with 5% charcoal/dextran-treated FCS. Cells were induced with E2 (100 nM), BYL719 (1 μM) or vehicle (DMSO) for 24 hours.
Total RNA was extracted from patient biopsies tissue using TRIzol (Life Technologies) and treated with DNAse before cDNA synthesis. cDNA synthesis was performed using the Bio-Rad cDNA synthesis kit according to the manufacturer's instructions. RNA was isolated from cells using the QIAGEN RNeasy kit. The qPCR SYBR green mix (Applied Biosystems) was used to amplify specific cDNA fragments with the oligonucleotides listed in Extended figure using the ViiA™ Real Time PCR system (Applied Biosystems). The data were analyzed by the change-in-threshold (2^−ΔΔCT) method using Actin or GAPDH as a housekeeping genes to obtain relative RNA expression. […]

In the case of `Cc1nc(NC(=O)N2CCC[C@H]2C(N)=O)sc1-c1ccnc(C(C)(C)C(F)(F)F)c1` [BYL719], in assay [1], the “binding of ER, FOXA1 and PBX1 to enhancers or promoters of canonical ER target genes” value is reported as “significantly enhanced”. For the same compound, in the assay on KMT2D, the “KMT2D recruitment at regulatory regions” value is “peaked at early hours” and the “abundance of H3K4me1/2 occupying regulatory regions” value is recorded as “elevated at the same time points”. Besides, in the assay with T47D and MCF7 cells (ER-positive cell lines), the “cell viability, KMT2D knockdown combined with BYL719” value was “greater effect”. Further, the “viability of cells treated with BYL719 upon FOXA1 and PBX1 silencing” value with T47D and MCF7 cells (constitutive or inducible shRNAs) is on record as “decrease the viability”. Moreover, in assay [2], the “chromatin accessibility in regions responsive to PI3K inhibition” value was “increase in chromatin accessibility”. Also, the “co-occupancy of ER and FOXA1 at specific target loci” value in the assay on T47D cells (BYL719 (1 μM) for 24 h) was “increased co-occupancy of ER and FOXA1”. For the same compound, the “ER binding events (ER ChIP-seq)” value with T47D cells (DMSO or BYL719 for 24 h) is “induced differential ER binding”. In addition, the “antitumor effect of silencing KMT2D in the presence of BYL719” value in the assay on MCF7 xenografts (MCF7 inducible shKMT2D xenografts, BYL719 daily 25 mg/kg) is on record as “enhanced”. For the same compound, the “anti-tumor activity of BYL719 with FOXA1 silencing” value with MCF7 xenografts (MCF7 xenografts, inducible shFOXA1, BYL719 daily 25 mg/kg) was “markedly increased the anti-tumor activity”. Also, the “expression of ER-dependent genes in the absence of KMT2D” value in assay [3] is recorded as “decrease of expression”.
